These results are taken from ChEMBL document CHEMBL5608215, “Development of amphipathic derivatives of thymol and carvacrol as potent broad-spectrum antibacterial agents” (Eur J Med Chem, 2024).

Each structure is given as a SMILES string.

Common to all, as to assay type: functional
Test [1] has as its system Staphylococcus aureus. Put plainly: Antibacterial activity against Staphylococcus aureus ATCC29213 by CLSI based serial dilution method.
Test [2] has as its system Staphylococcus aureus. Description: Antibacterial activity against methicillin-resistant Staphylococcus aureus 21-5 by CLSI based serial dilution method.
A further test deals with Enterococcus faecalis. Description: Antibacterial activity against Enterococcus faecalis ATCC29212 by CLSI based serial dilution method.
A further test relates to Enterococcus. Description: Antibacterial activity against vancomycin-resistant Enterococcus ATCC51299 by CLSI based serial dilution method.
For the next test, the system named is Escherichia coli. Description: Antibacterial activity against Escherichia coli ATCC25922 by CLSI based serial dilution method.
For another test, the system named is Pseudomonas aeruginosa. Put plainly: Antibacterial activity against Pseudomonas aeruginosa ATCC27853 by CLSI based serial dilution method.

The term MIC denotes the smallest concentration in the dilution series that meets the test's criterion for growth inhibition. A high value points to a less susceptible organism. Take `CCCCN(CCCC)C(=O)C[N+](C)(C)CCCOc1cc(C(C)C)ccc1C.[Br-]`: the MIC against Staphylococcus aureus [1] is 4 mg/L; in the test with Staphylococcus aureus [2] it was 8 mg/L; against Enterococcus faecalis, 8 mg/L; against Enterococcus, 16 mg/L; in the test with Escherichia coli, 64 mg/L; with Pseudomonas aeruginosa it was > 128 mg/L.

With `Cc1ccc(C(C)C)cc1OCCC[N+](C)(C)CC(=O)N(C(C)C)C(C)C.[Br-]`, the MIC against Staphylococcus aureus [1] was 16 mg/L; in the test with Staphylococcus aureus [2], 64 mg/L; in the test with Enterococcus faecalis it was 32 mg/L; in the test with Enterococcus, 32 mg/L; against Escherichia coli, 128 mg/L; in the test on Pseudomonas aeruginosa, > 128 mg/L.

Regarding `Cc1ccc(C(C)C)c(OCCCC[N+](C)(C)CC(=O)N(C(C)C)C(C)C)c1.[Br-]`, the MIC in the test on Staphylococcus aureus [1] is 8 mg/L; with Staphylococcus aureus [2], 16 mg/L; in the test with Enterococcus faecalis it was 16 mg/L; in the test with Enterococcus it was 32 mg/L; with Escherichia coli, 128 mg/L; in the test with Pseudomonas aeruginosa it was > 128 mg/L.

For `Cc1ccc(C(C)C)c(OCCCC[N+](C)(C)CC(=O)N(CC(C)C)CC(C)C)c1.[Br-]`, the MIC against Staphylococcus aureus [1] is 4 mg/L; in the test on Staphylococcus aureus [2], 4 mg/L; in the test on Enterococcus faecalis it was 8 mg/L; with Enterococcus, 16 mg/L; against Escherichia coli, 64 mg/L; in the test on Pseudomonas aeruginosa it was > 128 mg/L.

For the compound `Cc1ccc(C(C)C)c(OCCC[N+](C)(C)CC(=O)N(C(C)C)C(C)C)c1.[Br-]`, the MIC is 16 mg/L in the test on Staphylococcus aureus [1]; 16 mg/L with Staphylococcus aureus [2]; 16 mg/L against Enterococcus faecalis; 32 mg/L in the test on Enterococcus; 128 mg/L against Escherichia coli; > 128 mg/L against Pseudomonas aeruginosa.

`CCCCCCN(CCCCCC)C(=O)C[N+](C)(C)CCCCOc1cc(C)ccc1C(C)C.[Br-]`: the MIC in the test on Staphylococcus aureus [1], in the test with Staphylococcus aureus [2], with Enterococcus faecalis, in the test with Enterococcus, in the test on Escherichia coli and against Pseudomonas aeruginosa was > 128 mg/L throughout.

Turning to `CCCCCCNC(=O)C[N+](C)(C)CCCCOc1cc(C(C)C)ccc1C.[Br-]`, the MIC was determined as 2 mg/L in the test with Staphylococcus aureus [1]; 8 mg/L in the test on Staphylococcus aureus [2]; 4 mg/L in the test with Enterococcus faecalis; 8 mg/L in the test on Enterococcus; 16 mg/L against Escherichia coli; 32 mg/L in the test on Pseudomonas aeruginosa.

Take `Cc1ccc(C(C)C)cc1OCCCCC[N+](C)(C)CC(=O)N1CCSCC1.[Br-]`: the MIC with Staphylococcus aureus [1] is 32 mg/L; against Staphylococcus aureus [2], 128 mg/L; against Enterococcus faecalis, 32 mg/L; in the test on Enterococcus, 64 mg/L; against Escherichia coli it was 128 mg/L; against Pseudomonas aeruginosa, > 128 mg/L.

For the compound `Cc1ccc(C(C)C)cc1OCCC[N+](C)(C)CC(=O)N1CCOCC1.[Br-]`, the MIC in the test on Staphylococcus aureus [1] was 128 mg/L; with Staphylococcus aureus [2] it was > 128 mg/L; in the test with Enterococcus faecalis, 128 mg/L; in the test on Enterococcus, > 128 mg/L; against Escherichia coli, > 128 mg/L; against Pseudomonas aeruginosa, > 128 mg/L.

With `CCCCCCNC(=O)C[N+](C)(C)CCCCCOc1cc(C(C)C)ccc1C.[Br-]`, the MIC in the test with Staphylococcus aureus [1] amounted to 2 mg/L; in the test on Staphylococcus aureus [2], 2 mg/L; in the test on Enterococcus faecalis it was 2 mg/L; against Enterococcus it was 8 mg/L; in the test on Escherichia coli it was 8 mg/L; against Pseudomonas aeruginosa it was 16 mg/L.

Regarding `Cc1ccc(C(C)C)cc1OCCCC[N+](C)(C)CC(=O)N(CC(C)C)CC(C)C.[Br-]`, the MIC with Staphylococcus aureus [1] was 4 mg/L; against Staphylococcus aureus [2], 4 mg/L; in the test on Enterococcus faecalis, 8 mg/L; against Enterococcus it was 8 mg/L; in the test on Escherichia coli it was 64 mg/L; in the test with Pseudomonas aeruginosa, > 128 mg/L.

Turning to `CCCCNC(=O)C[N+](C)(C)CCCOc1cc(C)ccc1C(C)C.[Br-]`, the MIC in the test with Staphylococcus aureus [1] was 32 mg/L; in the test with Staphylococcus aureus [2] it was 32 mg/L; in the test with Enterococcus faecalis, 64 mg/L; in the test on Enterococcus, 128 mg/L; with Escherichia coli, 128 mg/L; in the test with Pseudomonas aeruginosa, > 128 mg/L.

`CCCCCCCNC(=O)C[N+](C)(C)CCCCCOc1cc(C)ccc1C(C)C.[Br-]`: the minimal inhibitory concentration (MIC) against Staphylococcus aureus [1] came out at 4 mg/L; with Staphylococcus aureus [2], 16 mg/L; with Enterococcus faecalis, 4 mg/L; against Enterococcus, 8 mg/L; against Escherichia coli, 16 mg/L; in the test on Pseudomonas aeruginosa, 32 mg/L.

`CCCCCCNC(=O)C[N+](C)(C)CCCOc1cc(C(C)C)ccc1C.[Br-]`: the MIC against Staphylococcus aureus [1] was found to be 4 mg/L; in the test with Staphylococcus aureus [2], 8 mg/L; with Enterococcus faecalis, 4 mg/L; against Enterococcus, 8 mg/L; in the test with Escherichia coli it was 16 mg/L; in the test on Pseudomonas aeruginosa, 32 mg/L.

Regarding `CCCCCCN(CCCCCC)C(=O)C[N+](C)(C)CCCOc1cc(C)ccc1C(C)C.[Br-]`, the MIC is 16 mg/L against Staphylococcus aureus [1]; > 128 mg/L with Staphylococcus aureus [2]; 16 mg/L against Enterococcus faecalis; 32 mg/L in the test on Enterococcus; 128 mg/L in the test with Escherichia coli; > 128 mg/L against Pseudomonas aeruginosa.

Regarding `CCCCCCNC(=O)C[N+](C)(C)CCCOc1cc(C)ccc1C(C)C.[Br-]`, the MIC worked out at 4 mg/L in the test with Staphylococcus aureus [1]; 4 mg/L against Staphylococcus aureus [2]; 4 mg/L in the test with Enterococcus faecalis; 8 mg/L against Enterococcus; 16 mg/L with Escherichia coli; 32 mg/L with Pseudomonas aeruginosa.

For the compound `CCCCN(CCCC)C(=O)C[N+](C)(C)CCCCCOc1cc(C(C)C)ccc1C.[Br-]`, the MIC with Staphylococcus aureus [1] was 1 mg/L; in the test on Staphylococcus aureus [2] it was 2 mg/L; with Enterococcus faecalis it was 2 mg/L; against Enterococcus, 32 mg/L; in the test on Escherichia coli, 16 mg/L; in the test with Pseudomonas aeruginosa, 32 mg/L.

With `CCCCCNC(=O)C[N+](C)(C)CCCCCOc1cc(C(C)C)ccc1C.[Br-]`, the minimal inhibitory concentration (MIC) in the test on Staphylococcus aureus [1] came out at 4 mg/L; against Staphylococcus aureus [2], 8 mg/L; against Enterococcus faecalis, 8 mg/L; against Enterococcus, 16 mg/L; with Escherichia coli, 16 mg/L; in the test on Pseudomonas aeruginosa it was 64 mg/L.

For `CCCCN(CCCC)C(=O)C[N+](C)(C)CCCCOc1cc(C)ccc1C(C)C.[Br-]`, the MIC in the test on Staphylococcus aureus [1] is 2 mg/L; in the test on Staphylococcus aureus [2], 2 mg/L; against Enterococcus faecalis it was 8 mg/L; against Enterococcus, 8 mg/L; against Escherichia coli, 128 mg/L; against Pseudomonas aeruginosa it was > 128 mg/L.

Regarding `CCCCCNC(=O)C[N+](C)(C)CCCOc1cc(C)ccc1C(C)C.[Br-]`, the MIC against Staphylococcus aureus [1] is 8 mg/L; against Staphylococcus aureus [2], 16 mg/L; against Enterococcus faecalis, 16 mg/L; with Enterococcus, 32 mg/L; against Escherichia coli, 32 mg/L; with Pseudomonas aeruginosa, > 128 mg/L.

With `CCCCCCN(CCCCCC)C(=O)C[N+](C)(C)CCCCCOc1cc(C(C)C)ccc1C.[Br-]`, the MIC was found to be 1 mg/L against Staphylococcus aureus [1]; 16 mg/L with Staphylococcus aureus [2]; 1 mg/L in the test with Enterococcus faecalis; 1 mg/L in the test on Enterococcus; 8 mg/L in the test with Escherichia coli; 16 mg/L in the test with Pseudomonas aeruginosa.

Consider `CCCCCCCNC(=O)C[N+](C)(C)CCCOc1cc(C(C)C)ccc1C.[Br-]`, for which the MIC came to 2 mg/L in the test on Staphylococcus aureus [1]; 16 mg/L against Staphylococcus aureus [2]; 2 mg/L in the test with Enterococcus faecalis; 4 mg/L with Enterococcus; 8 mg/L against Escherichia coli; 16 mg/L against Pseudomonas aeruginosa.

As for `Cc1ccc(C(C)C)cc1OCCCC[N+](C)(C)CC(=O)N1CCSCC1.[Br-]`, the minimal inhibitory concentration (MIC) is 32 mg/L against Staphylococcus aureus [1]; 64 mg/L in the test with Staphylococcus aureus [2]; 64 mg/L in the test on Enterococcus faecalis; 128 mg/L with Enterococcus; 128 mg/L in the test on Escherichia coli; > 128 mg/L against Pseudomonas aeruginosa.

On to `Cc1ccc(C(C)C)c(OCCC[N+](C)(C)CC(=O)N2CCSCC2)c1.[Br-]`, for which the minimum inhibitory concentration (MIC) with Staphylococcus aureus [1] is 64 mg/L; with Staphylococcus aureus [2] it was 64 mg/L; with Enterococcus faecalis it was 128 mg/L; in the test with Enterococcus, > 128 mg/L; in the test with Escherichia coli, > 128 mg/L; against Pseudomonas aeruginosa, > 128 mg/L.

For the compound `Cc1ccc(C(C)C)cc1OCCCC[N+](C)(C)CC(=O)N(C(C)C)C(C)C.[Br-]`, the MIC in the test with Staphylococcus aureus [1] is 8 mg/L; with Staphylococcus aureus [2] it was 16 mg/L; in the test with Enterococcus faecalis it was 16 mg/L; against Enterococcus, 32 mg/L; in the test with Escherichia coli, 128 mg/L; in the test on Pseudomonas aeruginosa, > 128 mg/L.

Consider `Cc1ccc(C(C)C)cc1OCCC[N+](C)(C)CC(=O)N(CC(C)C)CC(C)C.[Br-]`, for which the MIC was 4 mg/L with Staphylococcus aureus [1]; 16 mg/L against Staphylococcus aureus [2]; 16 mg/L against Enterococcus faecalis; 16 mg/L with Enterococcus; 64 mg/L with Escherichia coli; > 128 mg/L against Pseudomonas aeruginosa.

On to `Cc1ccc(C(C)C)c(OCCCCC[N+](C)(C)CC(=O)N(C(C)C)C(C)C)c1.[Br-]`, for which the MIC is 4 mg/L in the test with Staphylococcus aureus [1]; 2 mg/L against Staphylococcus aureus [2]; 8 mg/L in the test on Enterococcus faecalis; 16 mg/L in the test with Enterococcus; 64 mg/L against Escherichia coli; > 128 mg/L with Pseudomonas aeruginosa.

Consider `CCCCNC(=O)C[N+](C)(C)CCCCCOc1cc(C(C)C)ccc1C.[Br-]`, for which the minimal inhibitory concentration (MIC) in the test with Staphylococcus aureus [1] is 16 mg/L; against Staphylococcus aureus [2], 16 mg/L; with Enterococcus faecalis, 16 mg/L; against Enterococcus, 128 mg/L; in the test on Escherichia coli, > 64 mg/L; against Pseudomonas aeruginosa, > 128 mg/L.

As for `CCCCNC(=O)C[N+](C)(C)CCCCCOc1cc(C)ccc1C(C)C.[Br-]`, the MIC in the test on Staphylococcus aureus [1] is 8 mg/L; with Staphylococcus aureus [2] it was 16 mg/L; against Enterococcus faecalis, 16 mg/L; against Enterococcus, 64 mg/L; in the test with Escherichia coli, 64 mg/L; in the test with Pseudomonas aeruginosa it was > 128 mg/L.

Take `Cc1ccc(C(C)C)c(OCCCC[N+](C)(C)CC(=O)N2CCSCC2)c1.[Br-]`: the MIC in the test with Staphylococcus aureus [1] was 64 mg/L; against Staphylococcus aureus [2], 64 mg/L; against Enterococcus faecalis it was 64 mg/L; in the test with Enterococcus, > 128 mg/L; in the test on Escherichia coli it was > 128 mg/L; against Pseudomonas aeruginosa, > 128 mg/L.

As for `CCCN(CCC)C(=O)C[N+](C)(C)CCCCCOc1cc(C(C)C)ccc1C.[Br-]`, the MIC was 8 mg/L with Staphylococcus aureus [1]; 16 mg/L against Staphylococcus aureus [2]; 8 mg/L against Enterococcus faecalis; 16 mg/L against Enterococcus; 64 mg/L in the test with Escherichia coli; > 128 mg/L in the test with Pseudomonas aeruginosa.

Regarding `Cc1ccc(C(C)C)c(OCCCCC[N+](C)(C)CC(=O)N2CCOCC2)c1.[Br-]`, the minimal inhibitory concentration (MIC) against Staphylococcus aureus [1] is 128 mg/L; against Staphylococcus aureus [2], > 128 mg/L; against Enterococcus faecalis, 128 mg/L; in the test on Enterococcus, > 128 mg/L; in the test on Escherichia coli, > 128 mg/L; with Pseudomonas aeruginosa it was > 128 mg/L.
